Source: paper PMC3065929 (Journal of the American Chemical Society, 2011)

Legend:
Type in all cases: biochemical
NapH1 = target: T1, NapH1 (Streptomyces sp. CNQ-525, UniProt A7KH27); test: HPLC assay of chlorination-cyclization; conditions: H2O2, chloride, pH 6; estimated, below detection limit of the assay
T1 sequence (A7KH27 42-527): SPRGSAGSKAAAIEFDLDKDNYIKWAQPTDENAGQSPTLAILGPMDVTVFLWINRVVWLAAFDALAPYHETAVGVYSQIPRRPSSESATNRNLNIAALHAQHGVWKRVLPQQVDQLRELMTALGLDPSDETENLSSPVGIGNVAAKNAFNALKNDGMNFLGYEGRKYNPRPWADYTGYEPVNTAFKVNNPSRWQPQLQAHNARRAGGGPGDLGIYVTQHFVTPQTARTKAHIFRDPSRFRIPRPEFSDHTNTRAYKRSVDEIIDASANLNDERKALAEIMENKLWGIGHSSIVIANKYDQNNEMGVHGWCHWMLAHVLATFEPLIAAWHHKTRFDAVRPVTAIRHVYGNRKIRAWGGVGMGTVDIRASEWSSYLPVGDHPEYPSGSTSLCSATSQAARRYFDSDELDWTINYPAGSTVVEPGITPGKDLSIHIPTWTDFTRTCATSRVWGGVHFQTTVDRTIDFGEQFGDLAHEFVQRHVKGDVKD

CoBPO [1] = target: T2, CoBPO (Corallina officinalis, UniProt Q8LLW7); test: conversion to products
T2 sequence (Q8LLW7 1-598): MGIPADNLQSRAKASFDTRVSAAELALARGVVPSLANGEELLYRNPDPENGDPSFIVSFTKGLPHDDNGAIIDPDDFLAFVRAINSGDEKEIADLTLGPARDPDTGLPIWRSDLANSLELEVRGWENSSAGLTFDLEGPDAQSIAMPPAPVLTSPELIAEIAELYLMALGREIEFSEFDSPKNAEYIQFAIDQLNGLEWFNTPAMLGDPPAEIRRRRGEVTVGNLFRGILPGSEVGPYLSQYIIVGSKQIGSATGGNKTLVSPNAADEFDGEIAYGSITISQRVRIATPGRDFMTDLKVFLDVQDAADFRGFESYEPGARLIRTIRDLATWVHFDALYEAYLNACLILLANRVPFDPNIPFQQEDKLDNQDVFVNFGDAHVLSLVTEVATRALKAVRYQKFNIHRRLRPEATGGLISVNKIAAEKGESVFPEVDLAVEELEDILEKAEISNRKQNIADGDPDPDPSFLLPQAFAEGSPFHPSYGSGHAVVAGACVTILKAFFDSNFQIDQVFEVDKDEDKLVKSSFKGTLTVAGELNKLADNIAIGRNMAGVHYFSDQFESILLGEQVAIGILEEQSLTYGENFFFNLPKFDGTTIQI

CoBPO [2] = target: T2, CoBPO; test: spectrophotometric MCD bromination assay; conditions: H2O2, 0.2 M bromide, 30 °C

CC(C)=CCC/C(C)=C/C[C@@]1(O)C(=O)c2cc(O)c(C)c(O)c2C(=O)[C@]1(Cl)CC=C(C)C [compound 3, SF2415B1]
Km (NapH1): < 1 µM

CC(C)=CCC1=C(O)C(=O)c2ccccc2C1=O [lapachol, 4-hydroxy-3-(3-methylbut-2-enyl)naphthalene-1,2-dione]
conversion to products (CoBPO [1]): CoBPO catalyzed the complete conversion of lapachol into numerous products

CC1(C)CC(=O)C(Cl)C(=O)C1 [monochlorodimedone]
spectrophotometric MCD bromination assay (290 nm) (CoBPO [2]): Corallina officinalis V-BPO (CoBPO) (below)
